Reference: patent publication US8809350B2, “Purine and pyrimidine CDK inhibitors and their use for the treatment of autoimmune diseases” (priority 2004, dated 2014)
Entries after “also recorded” stand apart in the source; their conditions may differ. Like-named read-outs stand apart in the source and are kept apart here. Each block holds one compound with its values, some of them ahead of it.

Key:
AurA = target: T1, AurA (Homo sapiens, UniProt O14965); experiment: In-house kinase assay (32P incorporation); assay type: biochemical; settings: in-house kinase assays
T1 sequence (O14965 1-403): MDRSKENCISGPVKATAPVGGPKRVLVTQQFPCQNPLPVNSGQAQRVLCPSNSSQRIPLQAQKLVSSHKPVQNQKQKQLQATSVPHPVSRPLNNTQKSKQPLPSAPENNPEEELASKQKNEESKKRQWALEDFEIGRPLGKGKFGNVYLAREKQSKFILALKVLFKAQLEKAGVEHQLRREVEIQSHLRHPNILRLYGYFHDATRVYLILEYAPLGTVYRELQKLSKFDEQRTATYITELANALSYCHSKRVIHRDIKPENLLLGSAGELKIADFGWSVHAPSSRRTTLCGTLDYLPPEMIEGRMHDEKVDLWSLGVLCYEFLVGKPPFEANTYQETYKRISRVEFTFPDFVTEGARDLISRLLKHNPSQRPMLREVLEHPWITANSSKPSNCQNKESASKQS
Procedure: (§1) Kinase activity was investigated by measuring the incorporation of radioactive phosphate from ATP into appropriate polypeptide substrates. Recombinant protein kinases and kinase complexes were produced or obtained commercially. Assays were performed using 96-well plates and appropriate assay buffers (typically 25 mM β-glycerophosphate, 20 mM MOPS, 5 mM EGTA, 1 mM DTT, 1 mM […], pH 7.4), into which were added 2-4 μg of active enzyme with appropriate substrates. The reactions were initiated by addition of Mg/ATP mix (15 mM MgCl2+100 μM ATP with 30-50 kBq per well of [γ-^32P]-ATP) and mixtures incubated as required at 30° C. Reactions were stopped on ice, followed by filtration through p81 filterplates or GF/C filterplates (Whatman Polyfiltronics, Kent, UK). After washing 3 times with 75 mM aq orthophosphoric acid, plates were dried, scintillant added and incorporated radioactivity measured in a scintillation counter (TopCount, Packard Instruments, Pangbourne, Berks, UK). Compounds for kinase assay were made up as 10 mM stocks in DMSO and diluted into 10% DMSO in assay buffer.

CDK1B = CDK1B (Homo sapiens, UniProt P06493); experiment: In-house kinase assay (32P incorporation); assay type: biochemical; settings: in-house kinase assays
Procedure: as §1

AurB = AurB (Homo sapiens, UniProt Q96GD4); experiment: In-house kinase assay (32P incorporation); assay type: biochemical; settings: in-house kinase assays
Procedure: as §1

CDK6D3 = CDK6D3 (Homo sapiens, UniProt Q00534); experiment: In-house kinase assay (32P incorporation); assay type: biochemical; settings: in-house kinase assays
Procedure: as §1

tumour cell panels = experiment: In-house 72 hour cytotoxicity assays on tumour cell panels; assay type: cell-based
CDK7/cyclin H = CDK7/cyclin H (Homo sapiens, UniProt P50613); experiment: CDK 7 and 9 assay (CTD peptide substrate); assay type: biochemical; settings: in-house kinase assays; read-out: Average IC50 CDK7H
Procedure: as §1
(§2) The reaction was stopped by placing the plate on ice for 2 min. Avidin (50 μg) was added to each well, and the plate was incubated at room temp for 30 min. The samples were transferred to a 96-well P81 filter plate, and washed (4×200 μL per well) with 75 mM phosphoric acid. Microscint 40 scintillation liquid (50 μL) was added to each well, and the amount of ^32P incorporation for each sample was measured using a Packard Topcount microplate scintillation counter.

CDK4D1 = CDK4D1 (Homo sapiens, UniProt P11802); experiment: In-house kinase assay (32P incorporation); assay type: biochemical; settings: in-house kinase assays
Procedure: as §1

CDK2E = CDK2E (Homo sapiens, UniProt P24941); experiment: In-house kinase assay (32P incorporation); assay type: biochemical; settings: in-house kinase assays
Procedure: as §1

CDK9/cyclin T1 = CDK9/cyclin T1 (Homo sapiens, UniProt P50750); experiment: CDK 7 and 9 assay (CTD peptide substrate); assay type: biochemical; settings: in-house kinase assays; read-out: Average IC50 CDK9T1
Procedure: as §1, §2

stimulated PBMCs = experiment: T cell proliferation assay (BrdU ELISA in stimulated PBMCs); assay type: cell-based
Procedure: PBMCs were seeded in 96 well plates at 1×10^5 cells/well, in 50 μL per well culture medium. […] All stimulants and compounds were made up to 4× final concentration in tissue culture medium and 25 μL of each drug and stimulant was then added to wells, for a final volume of 100 μL/well. For unstimulated controls, 25 μL tissue culture medium was added to wells instead of stimulant and for untreated cells, 25 μL/well tissue culture medium containing equal volume DMSO (0.1% final) was added. Three adjacent wells were treated for each stimulation/treatment condition and the mean value calculated for analysis.
In addition, PBMCs were stimulated with ConA (Concanavalin A, Sigma C5275) at concentrations ranging from 0.5 μg/mL to 100 μg/mL to identify its stimulatory effect and optimal concentration.
Cells were labelled with BrdU for two hours prior to harvesting. Plates were then centrifuged for 10 minutes at 300 g (RT), supernatant removed from wells by pipetting and cells dried for 1 hour at 60° C. FixDenat solution was added to plates (100 μL/well) and incubated for 30 minutes, then flicked to remove and anti-BrdU-POD solution added to plates (100 μL/well) and incubated for 90 minutes.

[1] = Body weight of NZB/W F1 lupus mice; settings: Example 1; for Body Weight: mean ± SE
[2] = system: anti-dsDNA autoantibodies; experiment: Serum anti-DNA antibodies in NZB/W F1 lupus mice; settings: Example 1; for Serum anti-DNA antibodies: mean ± SE
[3] = Food intake of NZB/W F1 lupus mice; assay type: in vivo; settings: Example 1; for Food Intake: mean ± SE
[4] = Water intake of NZB/W F1 lupus mice; assay type: in vivo; set-up: Water intake: unit not given beside the values; settings: Example 1; for Water intake: mean ± SE
[5] = Serum transaminase (AST, ALT) in NZB/W F1 lupus mice; settings: Example 1; for Serum Transaminase ALT / Serum Transaminase AST: mean ± SE
[6] = rounded IC50 value used for ease of calculation in PBMC assays, read-out: IC50 Used
[7] = 100 mg/kg daily by gavage from 2 months (preventive), age 2 months
[8] = 100 mg/kg daily by gavage from 2 months (preventive), age 3 months
[9] = 100 mg/kg daily by gavage from 2 months (preventive), age 4 months
[10] = 100 mg/kg daily by gavage from 2 months (preventive), age 5 months
[11] = 200 mg/kg daily by gavage from 2 months (preventive), age 2 months
[12] = 200 mg/kg daily by gavage from 2 months (preventive), age 3 months
[13] = 200 mg/kg daily by gavage from 2 months (preventive), age 5 months
[14] = 100 mg/kg daily by gavage from 2 months (preventive), age 2.5 months
[15] = 100 mg/kg daily by gavage from 2 months (preventive), age 3.5 months
[16] = 100 mg/kg daily by gavage from 2 months (preventive), age 4.5 months
[17] = 200 mg/kg daily by gavage from 2 months (preventive), age 2.5 months
[18] = 200 mg/kg daily by gavage from 2 months (preventive), age 3.5 months
[19] = every two weeks from 2 to 5 months
[20] = 100 mg/kg therapeutic (from 5 months)

Chain of CDK6D3 (Q00534 whole entry): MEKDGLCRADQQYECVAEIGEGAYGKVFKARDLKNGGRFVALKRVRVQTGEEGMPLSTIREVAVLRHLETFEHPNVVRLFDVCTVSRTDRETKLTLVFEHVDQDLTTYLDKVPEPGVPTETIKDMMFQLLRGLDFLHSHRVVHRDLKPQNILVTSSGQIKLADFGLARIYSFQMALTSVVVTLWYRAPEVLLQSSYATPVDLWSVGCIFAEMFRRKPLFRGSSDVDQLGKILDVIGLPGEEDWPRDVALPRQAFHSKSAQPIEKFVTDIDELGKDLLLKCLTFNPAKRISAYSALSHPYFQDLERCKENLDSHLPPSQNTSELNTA
Chain of CDK6D3 (P30281 whole entry partner): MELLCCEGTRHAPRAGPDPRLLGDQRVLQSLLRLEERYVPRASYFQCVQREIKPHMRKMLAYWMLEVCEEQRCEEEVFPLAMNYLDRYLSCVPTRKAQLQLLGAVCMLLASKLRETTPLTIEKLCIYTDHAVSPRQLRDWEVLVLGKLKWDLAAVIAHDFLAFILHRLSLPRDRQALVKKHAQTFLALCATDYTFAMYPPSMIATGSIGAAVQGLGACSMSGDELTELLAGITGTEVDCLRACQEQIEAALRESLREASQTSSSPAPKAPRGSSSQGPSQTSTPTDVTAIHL
Chain of CDK7/cyclin H (P50613 whole entry): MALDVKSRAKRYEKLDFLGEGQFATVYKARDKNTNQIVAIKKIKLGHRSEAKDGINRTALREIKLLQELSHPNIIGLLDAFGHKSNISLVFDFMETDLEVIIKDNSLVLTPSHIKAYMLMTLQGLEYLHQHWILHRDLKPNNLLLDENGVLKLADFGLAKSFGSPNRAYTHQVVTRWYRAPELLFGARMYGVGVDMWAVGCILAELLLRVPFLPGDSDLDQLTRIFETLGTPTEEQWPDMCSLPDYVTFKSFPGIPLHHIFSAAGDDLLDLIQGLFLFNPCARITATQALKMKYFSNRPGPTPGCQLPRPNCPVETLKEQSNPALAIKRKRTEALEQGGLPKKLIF
Chain of CDK7/cyclin H (P51946 whole entry partner): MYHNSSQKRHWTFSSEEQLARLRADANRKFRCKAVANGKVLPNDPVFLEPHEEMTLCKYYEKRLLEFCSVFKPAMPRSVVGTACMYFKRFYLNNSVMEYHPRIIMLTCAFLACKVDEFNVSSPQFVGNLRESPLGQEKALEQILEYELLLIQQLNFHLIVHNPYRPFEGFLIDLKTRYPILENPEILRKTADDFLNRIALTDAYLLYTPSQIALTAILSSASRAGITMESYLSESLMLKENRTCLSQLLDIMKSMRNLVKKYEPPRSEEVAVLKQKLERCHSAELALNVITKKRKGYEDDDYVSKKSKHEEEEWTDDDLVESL
Chain of CDK1B (P06493 whole entry): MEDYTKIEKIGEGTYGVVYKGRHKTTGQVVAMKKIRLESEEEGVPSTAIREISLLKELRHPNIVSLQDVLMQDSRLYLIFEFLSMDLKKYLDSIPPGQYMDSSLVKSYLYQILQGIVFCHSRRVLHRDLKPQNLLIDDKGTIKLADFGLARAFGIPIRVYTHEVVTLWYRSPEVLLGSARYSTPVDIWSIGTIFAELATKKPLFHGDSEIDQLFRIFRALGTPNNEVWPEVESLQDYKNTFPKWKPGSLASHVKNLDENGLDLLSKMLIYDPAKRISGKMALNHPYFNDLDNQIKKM
Chain of CDK1B (P14635 whole entry partner): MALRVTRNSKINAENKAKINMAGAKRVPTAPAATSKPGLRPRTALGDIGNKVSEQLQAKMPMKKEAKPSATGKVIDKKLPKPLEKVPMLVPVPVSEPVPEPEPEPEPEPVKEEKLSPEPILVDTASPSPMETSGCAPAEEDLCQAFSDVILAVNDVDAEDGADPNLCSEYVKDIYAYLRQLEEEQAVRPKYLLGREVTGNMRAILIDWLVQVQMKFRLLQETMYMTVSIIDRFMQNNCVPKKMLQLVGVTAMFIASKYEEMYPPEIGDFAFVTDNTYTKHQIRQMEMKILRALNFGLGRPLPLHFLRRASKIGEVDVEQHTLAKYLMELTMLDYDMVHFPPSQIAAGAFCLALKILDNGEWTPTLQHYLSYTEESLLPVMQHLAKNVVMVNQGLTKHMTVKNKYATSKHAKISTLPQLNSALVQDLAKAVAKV
Chain of AurB (Q96GD4 whole entry): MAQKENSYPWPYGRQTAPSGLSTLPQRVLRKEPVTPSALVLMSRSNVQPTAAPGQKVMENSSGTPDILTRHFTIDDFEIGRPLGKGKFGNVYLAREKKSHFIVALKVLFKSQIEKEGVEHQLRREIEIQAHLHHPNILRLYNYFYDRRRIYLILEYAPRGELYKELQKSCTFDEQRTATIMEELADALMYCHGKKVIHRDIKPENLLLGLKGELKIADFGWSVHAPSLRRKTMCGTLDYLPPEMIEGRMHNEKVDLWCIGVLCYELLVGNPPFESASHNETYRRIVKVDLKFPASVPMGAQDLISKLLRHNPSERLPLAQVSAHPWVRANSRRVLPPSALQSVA
Chain of CDK4D1 (P11802 whole entry): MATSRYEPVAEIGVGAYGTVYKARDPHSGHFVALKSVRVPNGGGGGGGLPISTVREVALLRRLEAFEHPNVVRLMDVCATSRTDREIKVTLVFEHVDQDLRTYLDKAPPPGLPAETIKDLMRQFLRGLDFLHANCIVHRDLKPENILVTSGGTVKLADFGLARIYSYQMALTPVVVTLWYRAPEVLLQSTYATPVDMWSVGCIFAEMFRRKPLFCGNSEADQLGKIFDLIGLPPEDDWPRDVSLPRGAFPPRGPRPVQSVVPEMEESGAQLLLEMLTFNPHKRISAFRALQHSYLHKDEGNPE
Chain of CDK4D1 (P24385 whole entry partner): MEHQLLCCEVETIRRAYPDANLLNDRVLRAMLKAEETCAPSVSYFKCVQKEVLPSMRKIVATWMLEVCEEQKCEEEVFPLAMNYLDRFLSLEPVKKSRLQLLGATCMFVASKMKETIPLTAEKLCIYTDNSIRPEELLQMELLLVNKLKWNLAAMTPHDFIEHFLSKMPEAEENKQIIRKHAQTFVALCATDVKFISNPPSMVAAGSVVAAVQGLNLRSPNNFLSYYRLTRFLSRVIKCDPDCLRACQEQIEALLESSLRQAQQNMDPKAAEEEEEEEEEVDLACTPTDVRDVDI
Chain of CDK9/cyclin T1 (P50750 whole entry): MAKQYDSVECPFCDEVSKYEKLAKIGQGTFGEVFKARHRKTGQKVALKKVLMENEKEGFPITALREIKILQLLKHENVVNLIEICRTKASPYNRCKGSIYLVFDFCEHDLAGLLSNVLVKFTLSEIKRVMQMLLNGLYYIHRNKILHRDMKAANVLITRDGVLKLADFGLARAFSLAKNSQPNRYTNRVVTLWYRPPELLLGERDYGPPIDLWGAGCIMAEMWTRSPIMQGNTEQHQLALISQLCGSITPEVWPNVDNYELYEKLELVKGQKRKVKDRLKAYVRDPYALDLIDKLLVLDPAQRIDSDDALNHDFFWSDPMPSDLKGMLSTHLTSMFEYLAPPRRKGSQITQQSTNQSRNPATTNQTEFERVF
Chain of CDK9/cyclin T1 (O60563 whole entry partner): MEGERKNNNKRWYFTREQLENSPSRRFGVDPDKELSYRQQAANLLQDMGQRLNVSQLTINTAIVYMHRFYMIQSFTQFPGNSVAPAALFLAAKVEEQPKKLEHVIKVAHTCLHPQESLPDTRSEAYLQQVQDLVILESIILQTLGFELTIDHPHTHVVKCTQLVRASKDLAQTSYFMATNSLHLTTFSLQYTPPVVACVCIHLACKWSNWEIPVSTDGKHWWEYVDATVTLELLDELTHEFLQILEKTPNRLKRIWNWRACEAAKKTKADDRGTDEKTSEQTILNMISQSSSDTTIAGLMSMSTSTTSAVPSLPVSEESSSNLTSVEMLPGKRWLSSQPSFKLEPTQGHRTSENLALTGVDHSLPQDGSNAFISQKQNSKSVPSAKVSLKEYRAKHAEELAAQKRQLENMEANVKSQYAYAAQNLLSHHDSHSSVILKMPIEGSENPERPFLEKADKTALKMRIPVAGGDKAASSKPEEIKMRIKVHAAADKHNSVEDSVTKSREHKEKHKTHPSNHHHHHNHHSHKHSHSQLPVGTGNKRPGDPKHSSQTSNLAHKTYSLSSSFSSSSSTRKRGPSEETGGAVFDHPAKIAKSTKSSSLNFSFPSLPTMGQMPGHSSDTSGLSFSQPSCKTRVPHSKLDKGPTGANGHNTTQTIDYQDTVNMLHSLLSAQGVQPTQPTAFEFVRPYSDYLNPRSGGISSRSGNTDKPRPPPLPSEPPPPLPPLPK

Compound: CC[C@H](Nc1nc(NCc2cccnc2)c2ncn(C(C)C)c2n1)[C@@H](C)O [Compound 8]
IC50 (AurA): 652 nM
IC50 (CDK1B): 1990 nM
IC50 (AurB): 399 nM
IC50 (CDK6D3): 168 nM
IC50 (tumour cell panels; 72 h, read-out: IC50 Average): 876 nM
IC50 (tumour cell panels; [6]): 1000 nM

Compound: CC[C@H](Nc1nc(NCc2cccnc2)c2ncn(C(C)C)c2n1)C(C)(C)O [Compound 6]
IC50 (AurA): > 10000 nM
IC50 (CDK1B): 7600 nM
IC50 (AurB): > 10000 nM
IC50 (CDK2E): 126 nM
IC50 (CDK6D3): 9190 nM
IC50 (CDK4D1): 19300 nM
IC50 (CDK9/cyclin T1): 338 nM
IC50 (CDK7/cyclin H): 1330 nM
IC50 (tumour cell panels; 72 h, read-out: IC50 Average): 10400 nM
IC50 (tumour cell panels; [6]): 10000 nM

Compound: Cc1nc(C)c(-c2ccnc(Nc3ccc(N(C)C)cc3)n2)s1 [Compound 4]
IC50 (AurA): 38 nM
IC50 (CDK1B): 7460 nM
IC50 (AurB): 30 nM
IC50 (CDK6D3): 1040 nM
BrdU incorporation (stimulated PBMCs; Example 3, PMA/I stimulated PBMCs, all concentrations): higher than in PHA stimulated cells
BrdU incorporation (stimulated PBMCs; Example 4, PHA or ConA stimulated PBMCs, 0.25×IC50 to 4×IC50, 48 and 72 hours): BrdU signals do not reduce to background levels; also recorded: fails to achieve complete inhibition of proliferation activity
IC50 (CDK9/cyclin T1): 1880 nM
IC50 (CDK7/cyclin H): 8570 nM
IC50 (tumour cell panels; PBMC, read-out: IC50 Used): 1000 nM

Compound: CC[C@H](CO)Nc1nc(NCc2ccccc2)c2ncn(C(C)C)c2n1 [CYC202, 2-(1-R-hydroxymethylpropylamino)-6-benzylamino-9-isopropylpurine]
Body Weight [1, 7]: 27.93 ± 0.62
Body Weight [1, 8]: 27.86 ± 0.52
Body Weight [1, 9]: 28.07 ± 0.57
Body Weight [1, 10]: 28.64 ± 0.57
Body Weight ([1]; 100 mg/kg daily by gavage from 2 months (preventive), age 6 months): 30.23 ± 0.67
Body Weight ([1]; 100 mg/kg daily by gavage from 2 months (preventive), age 7 months): 31.50 ± 0.87
Body Weight ([1]; 100 mg/kg daily by gavage from 2 months (preventive), age 8 months): 30.78 ± 0.91
Body Weight ([1]; 100 mg/kg daily by gavage from 5 months (therapeutic), age 2 months): 26.71 ± 0.74
Body Weight ([1]; 100 mg/kg daily by gavage from 5 months (therapeutic), age 3 months): 28.14 ± 0.69
Body Weight ([1]; 100 mg/kg daily by gavage from 5 months (therapeutic), age 4 months): 29.43 ± 1.01
Body Weight ([1]; 100 mg/kg daily by gavage from 5 months (therapeutic), age 5 months): 29.71 ± 0.82
Body Weight ([1]; 100 mg/kg daily by gavage from 5 months (therapeutic), age 6 months): 31.45 ± 0.96
Body Weight ([1]; 100 mg/kg daily by gavage from 5 months (therapeutic), age 7 months): 30.80 ± 1.69
Body Weight ([1]; 100 mg/kg daily by gavage from 5 months (therapeutic), age 8 months): 29.80 ± 1.46
Body Weight [1, 11]: 27.85 ± 0.72
Body Weight [1, 12]: 28.00 ± 0.68
Body Weight [1, 13]: 28.92 ± 0.35
Body Weight ([1]; 200 mg/kg daily by gavage from 2 months (preventive), age 6 months): 31.58 ± 0.43
Body Weight ([1]; 200 mg/kg daily by gavage from 2 months (preventive), age 7 months): 30.82 ± 0.35
Body Weight ([1]; 200 mg/kg daily by gavage from 2 months (preventive), age 8 months): 31.60 ± 0.52
Body weight versus other experimental groups ([1]; all CYC202 groups): No difference
Serum anti-DNA antibodies ([2]; 100 mg/kg preventive, 5 months): 4.04 ± 0.76 U/ml
Serum anti-DNA antibodies ([2]; 100 mg/kg preventive, 8 months): 76.55 ± 21.40 U/ml
Serum anti-DNA antibodies ([2]; 200 mg/kg preventive, 5 months): 24.20 ± 6.52 U/ml
Serum anti-DNA antibodies ([2]; 200 mg/kg preventive, 8 months): 73.39 ± 21.13 U/ml
Anti-DNA antibody levels versus vehicle ([2]; treated from 2 months, both doses, at 5 or 8 months of age): significantly lower than vehicle
Food Intake [3, 7]: 3.69 ± 0.33
Food Intake [3, 14]: 3.77 ± 0.23
Food Intake [3, 8]: 3.92 ± 0.18
Food Intake [3, 15]: 4.08 ± 0.18
Food Intake [3, 9]: 3.92 ± 0.26
Food Intake [3, 16]: 3.85 ± 0.30
Food Intake [3, 10]: 3.85 ± 0.22
Food Intake [3, 11]: 3.54 ± 0.29
Food Intake [3, 17]: 4.08 ± 0.08
Food Intake [3, 12]: 4.00 ± 0.11
Food Intake [3, 18]: 4.08 ± 0.21
Food Intake ([3]; 200 mg/kg daily by gavage from 2 months (preventive), age 4 months): 4.00 ± 0.16
Food Intake ([3]; 200 mg/kg daily by gavage from 2 months (preventive), age 4.5 months): 4.00 ± 0.18
Food Intake [3, 13]: 3.92 ± 0.29
Food intake versus vehicle [3, 19]: comparable
Water intake [4, 7]: 6.64 ± 0.29
Water intake [4, 14]: 5.14 ± 0.40
Water intake [4, 8]: 4.21 ± 0.28
Water intake [4, 15]: 5.00 ± 0.28
Water intake [4, 9]: 5.57 ± 0.20
Water intake [4, 16]: 4.43 ± 0.20
Water intake [4, 10]: 3.93 ± 0.22
Water intake [4, 11]: 5.31 ± 0.26
Water intake [4, 17]: 4.77 ± 0.20
Water intake [4, 12]: 4.92 ± 0.18
Water intake [4, 18]: 5.08 ± 0.21
Water intake [4, 13]: 4.23 ± 0.28
Water intake versus vehicle [4, 19]: comparable
Serum Transaminase ALT [5, 20]: 36.00 ± 2.45 IU/L
Serum Transaminase AST [5, 20]: 74.40 ± 1.72 IU/L
Serum transaminase levels (ALT and AST) ([5]; 200 mg/kg from 2 months or 100 mg/kg from 5 months, similar to control mice): not modified by treatments
Serum Transaminase ALT ([5]; 200 mg/kg preventive): 36.44 ± 4.04 IU/L
Serum Transaminase AST ([5]; 200 mg/kg preventive): 62.89 ± 4.70 IU/L

Continued, in another order:

IC50 (CDK7/cyclin H): 266 nM
Compound: Cc1nc(N)sc1-c1ccnc(Nc2ccc(N3CCOCC3)cc2)n1 [Compound 11]
IC50 (tumour cell panels; 72 h, read-out: IC50 Average): 291 nM
IC50 (tumour cell panels; [6]): 500 nM

IC50 (CDK1B): 1030 nM
IC50 (CDK4D1): 1020 nM
Compound: CNc1nc(C)c(-c2ccnc(Nc3ccc(N4CCNCC4)cc3)n2)s1 [Compound 12]
IC50 (tumour cell panels; 72 h, read-out: IC50 Average): 353 nM
IC50 (tumour cell panels; [6]): 500 nM
